The assay deals with Kelch-like ECH-associated protein 1 (Homo sapiens) (UniProt Q14145). As to the kind of experiment: disruptors of Keap1 Kelch-Nrf2 peptide binding – biochemical, fluorescence polarization, dry powder, set 2, dose response (AID 651801). Conditions: Keap1 Kelch/FITC-Nrf2 peptide fluorescence polarization; for activity change, negative = inhibition: at 50 µM (top of the series). A general note: In fluorescence polarisation assays a small probe gives low polarisation when free and higher when bound to something large.
Sequence of Kelch-like ECH-associated protein 1 (Homo sapiens) (Q14145 whole entry, looked up): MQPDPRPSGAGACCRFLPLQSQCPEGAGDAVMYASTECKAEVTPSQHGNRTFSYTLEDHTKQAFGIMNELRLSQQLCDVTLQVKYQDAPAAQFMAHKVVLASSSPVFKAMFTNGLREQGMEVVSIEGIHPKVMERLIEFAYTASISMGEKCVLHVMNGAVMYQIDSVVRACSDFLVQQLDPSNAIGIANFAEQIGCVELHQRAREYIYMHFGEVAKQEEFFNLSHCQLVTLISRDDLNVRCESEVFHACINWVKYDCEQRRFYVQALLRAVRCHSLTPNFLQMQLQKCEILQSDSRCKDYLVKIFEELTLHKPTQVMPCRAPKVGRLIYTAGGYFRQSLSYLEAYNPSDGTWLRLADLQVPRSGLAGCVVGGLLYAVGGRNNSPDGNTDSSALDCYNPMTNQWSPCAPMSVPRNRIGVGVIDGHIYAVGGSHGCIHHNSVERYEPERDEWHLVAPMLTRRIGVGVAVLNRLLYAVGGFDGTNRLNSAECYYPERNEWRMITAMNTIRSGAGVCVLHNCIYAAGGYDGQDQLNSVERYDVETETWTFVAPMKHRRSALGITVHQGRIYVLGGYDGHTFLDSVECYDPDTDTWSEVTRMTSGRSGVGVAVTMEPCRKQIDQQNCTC

Active and inactive are the calls of the source.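 The calls were made as follows: active = signal falling with dose and AC50 at most twice the top valid tested dose; inconclusive = flat fit with inhibition of 30 to 70%, or poor fit; inactive = the rest, plus effects in the rising direction.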

By AC50 is commonly meant the concentration at which the activity in the assay is half-maximal.

`O=C(O)C1CCCCC1C(=O)N1CCc2ccccc2[C@H]1C(=O)NCCc1ccccc1` (some centres not stated): the “activity change, negative = inhibition” value is “inactive”.

Take `O=C(O)[C@H]1CCCC[C@H]1C(=O)N1CCc2ccccc2[C@H]1CNS(=O)(=O)c1ccc([N+](=O)[O-])cc1`: the “activity change, negative = inhibition” value is “inactive”.

As to `O=C1c2ccccc2C(=O)N1C[C@@H]1c2ccccc2CCN1C(=O)C1CCCCC1`, the “activity change, negative = inhibition” value is “inactive”.

Turning to `Cc1cc(C)c(S(=O)(=O)Nc2nc(NCCO)nc3ccccc23)c(C)c1`, the “activity change, negative = inhibition” value is “inactive”.

For `O=C(O)C1CCCCC1C(=O)N1CCCCC1CN1C(=O)c2ccccc2C1=O` (configuration not stated), the “activity change, negative = inhibition” value is “inactive”.

In the case of `CC(C)OC(=O)C(C(=O)C(F)(F)F)c1cc(NS(=O)(=O)c2ccccc2)c2ccccc2c1O` (configuration not stated), the AC50 is 30 µM.

For `O=C(NC[C@@H]1c2ccccc2CCN1C(=O)[C@@H]1CCCC[C@@H]1C(=O)O)OCC1c2ccccc2-c2ccccc21`, the “activity change, negative = inhibition” value was “inactive”.

The values are drawn from PubChem BioAssay AID651801 (Broad Institute, 2012).
